Assay results as given in patent US6057447A, “Quinoline sulfide derivatives” (Zenyaku Kogyo Kabushiki Kaisha, priority 1996, dated 2000).
Values after ≈ are worked out from the molar mass of the structure shown.

Experiments:
Assay type in all cases: cell-based
[1] = test system: Helicobacter pylori standard strain ATCC 43526 (NCTC 11916); assay: Antibacterial Test 1: MIC against Helicobacter pylori, agar plate dilution method (anaerobic MIC method); settings: 72 h, Hp ATCC 43526, agar plate dilution, 37° C., 3 days
[2] = test system: B. subtilis PCI 219; assay: Antibacterial Test 2: MIC, agar dilution method (aerobic MIC method); settings: Bacillus subtilis, PCI219
Method: (§1) Then, tested were antibacterial activities of the typical compounds of the present invention against gram-positive and -negative bacteria other than Hp. MICs of the typical compounds of the present invention were determined in substantial accordance with agar dilution method (aerobic MIC method) based on standard method of the Japan Society Chemotherapy.
(§2) The respective test compound were dissolved in dimethyl sulfoxide (DMSO) and serially diluted twofold to prepare solutions of the compounds with concentration of 0.05-100 μg/ml. The solutions of the compounds were respectively added to sensitive-disk agar medium-N (manufactured by NISSUI SEIYAKU) to prepare agar plates for determination.
(§3) The below-mentioned strains freezingly conserved at -135° C. were thawed in a warm bath (40° C.), cultured in a sensitivity-determining bouillon at 37° C. for 18-20 hours, and then diluted with the above-mentioned medium to prepare about 1.0×10^6 CFU/ml of bacterial suspension.
(§4) Inoculation was made by 5 μl by multi-inoculator (manufactured by SAKUMA SEISAKUSHO). Culturing was made under the same conditions as those of the pre-culturing and the MIC (unit: μg/ml) was determined by observing whether the bacteria grew or not.

[3] = test system: E. coli NIHJ JC-2; assay: as above; settings: Escherichia coli, NIHJJC2
Method: as §1, §2, §3, §4

[4] = test system: E. faecalis RIMD 3336001; assay: as above; settings: Enterococcus faecalis, RIMD3336001
Method: as §1, §2, §3, §4

[5] = test system: K. pneumoniae PCI 602; assay: as above; settings: Klebsiella pneumoniae, PCI602
Method: as §1, §2, §3, §4

[6] = test system: M. luteus ATCC 9341; assay: as above; settings: Micrococcus luteus, ATCC9341
Method: as §1, §2, §3, §4

[7] = test system: P. aeruginosa IFO 3445; assay: as above; settings: Pseudomonas aeruginosa, IFO3445
Method: as §1, §2, §3, §4

[8] = test system: S. aureus FDA 209P; assay: as above; settings: Staphylococcus aureus, FDA209P
Method: as §1, §2, §3, §4

SMILES | MIC [1] | MIC [2] | MIC [3] | MIC [4] | MIC [5] | MIC [6] | MIC [7] | MIC [8]
O=C(CSc1ccnc2ccccc12)c1ccc(OCc2ccccc2)cc1 [Compound 1, 4-[2-(4-Benzyloxyphenyl)-2-oxoethylthio]quinoline] | 0.05 µg/mL (≈ 0.13 µM) | > 100 µg/mL | > 100 µg/mL | > 100 µg/mL | > 100 µg/mL | > 100 µg/mL | > 100 µg/mL | > 100 µg/mL
O=C(CSc1ccnc2ccccc12)c1ccc2ccccc2c1 [Compound 2, 4-[2-(2-Naphtyl)-2-oxoethylthio]quinoline] | 0.2 µg/mL (≈ 0.607 µM) | > 100 µg/mL | > 100 µg/mL | > 100 µg/mL | > 100 µg/mL | > 100 µg/mL | > 100 µg/mL | > 100 µg/mL
CC(C)(C)c1ccc(C(=O)CSc2ccnc3ccccc23)cc1 [Compound 5, 4-[2-(4-tert-Butylphenyl)-2-oxoethylthio]quinoline] | 0.025 µg/mL (≈ 0.0745 µM) | > 100 µg/mL | > 100 µg/mL | > 100 µg/mL | > 100 µg/mL | > 100 µg/mL | > 100 µg/mL | > 100 µg/mL
O=C(CSc1ccnc2ccccc12)c1ccc(N2CCOCC2)cc1 [Compound 11, 4-[2-(4-Morpholinophenyl)-2-oxoethylthio]quinoline] | 0.0125 µg/mL (≈ 0.0343 µM) | > 100 µg/mL | > 100 µg/mL | > 100 µg/mL | > 100 µg/mL | > 100 µg/mL | > 100 µg/mL | > 100 µg/mL
O=C(CSc1ccnc2ccccc12)c1ccc(NCc2ccccc2)cc1 [Compound 23, 4-[2-(4-Benzylaminophenyl)-2-oxoethylthio]quinoline] | 0.025 µg/mL (≈ 0.065 µM) | > 100 µg/mL | > 100 µg/mL | > 100 µg/mL | > 100 µg/mL | > 100 µg/mL | > 100 µg/mL | > 100 µg/mL
CN(C)c1ccc(C(=O)CSc2ccnc3ccccc23)cc1 [Compound 26, 4-[2-(4-Dimethylaminophenyl)-2-oxoethylthio]quinoline] | 0.1 µg/mL (≈ 0.31 µM) | > 100 µg/mL | > 100 µg/mL | > 100 µg/mL | > 100 µg/mL | > 100 µg/mL | > 100 µg/mL | > 100 µg/mL
CN(C)c1ccc(CCSc2ccnc3ccccc23)cc1 [Compound 27, 4-[2-(4-Dimethylaminophenyl)ethylthio]quinoline] | 0.1 µg/mL (≈ 0.324 µM) | > 100 µg/mL | > 100 µg/mL | > 100 µg/mL | > 100 µg/mL | > 100 µg/mL | > 100 µg/mL | 50 µg/mL (≈ 162 µM)
CSc1ccc2c(SCc3ccc(N(C)C)cc3)ccnc2c1 [Compound 31, 4-(4-Dimethylaminobenzylthio)-7-methylthioquinoline] | 0.1 µg/mL (≈ 0.294 µM) | > 100 µg/mL | > 100 µg/mL | > 100 µg/mL | > 100 µg/mL | > 100 µg/mL | > 100 µg/mL | > 100 µg/mL
CSc1ccc2c(SCc3ccc(N)cc3)ccnc2c1 [Compound 34, 4-(4-Aminobenzylthio)-7-methylthioquinoline] | 0.2 µg/mL (≈ 0.64 µM) | > 100 µg/mL | > 100 µg/mL | > 100 µg/mL | > 100 µg/mL | > 100 µg/mL | > 100 µg/mL | > 100 µg/mL
CC(C)(C)OC(=O)N1CCN(c2ccc(C(=O)CSc3ccnc4ccccc34)cc2)CC1 [Compound 49, 4-[2-[4-(4-tert-Butoxycarbonyl-1-piperazinyl)phenyl]-2-oxoethylthio]quinoline] | 0.0008 µg/mL (≈ 0.00173 µM) | > 100 µg/mL | > 100 µg/mL | > 100 µg/mL | > 100 µg/mL | > 100 µg/mL | > 100 µg/mL | > 100 µg/mL
CSc1ccc2c(SCc3ccc(N4CCN(C=O)CC4)cc3)ccnc2c1 [Compound 63, 4-[4-(4-Formyl-1-piperazinyl)benzylthio]-7-methylthioquinoline] | 0.1 µg/mL (≈ 0.244 µM) | – | – | – | – | – | – | –
O=C(CSc1ccnc2ccccc12)c1ccc(N2CCN(c3ccc(Br)cc3)CC2)cc1 [Compound 67, 4-[2-[4-[4-(4-Bromophenyl)-1-piperazinyl]phenyl]-2-oxoethylthio]quinoline] | 0.0062 µg/mL (≈ 0.012 µM) | – | – | – | – | – | – | –
CCCCCCCNc1ccc(C(=O)CSc2ccnc3ccccc23)cc1 [Compound 69, 4-[2-[4-(Heptylamino)phenyl]-2-oxoethylthio]quinoline] | 0.025 µg/mL (≈ 0.0637 µM) | – | – | – | – | – | – | –
CC(C)CN(C)CC(=O)Nc1ccc(CCSc2ccnc3ccccc23)cc1 [Compound 70, 4-[2-[4-[2-(N-Isobutyl-N-methylamino)acetylamino]-phenyl]ethylthio]quinoline] | 0.05 µg/mL (≈ 0.123 µM) | – | – | – | – | – | – | –
CC(C)CN1CC(=O)N(c2ccc(C(=O)CSc3ccnc4ccccc34)cc2)C1 [Compound 71, 4-[2-[4-(3-Isobutyl-5-oxo-1-imidazolidinyl)phenyl]-2-oxoethylthio]quinoline] | 0.05 µg/mL (≈ 0.119 µM) | – | – | – | – | – | – | –
CC(C)CN(C)CCN(C)c1ccc(CCSc2ccnc3ccccc23)cc1 [Compound 72, 4-[2-[4-[N-[2-(N-Isobutyl-N-methylamino)ethyl]-N-methylamino]phenyl]ethylthio]quinoline] | 0.05 µg/mL (≈ 0.123 µM) | – | – | – | – | – | – | –
CC(C)(C)OC(=O)N1CCN(c2ccc(C(=O)CSc3ccnc4ccc(F)cc34)cc2)CC1 [Compound 73, 4-[2-[4-(4-tert-Butoxycarbonyl-1-piperazinyl)phenyl]-2-oxoethylthio]-6-fluoroquinoline] | 0.0062 µg/mL (≈ 0.0129 µM) | – | – | – | – | – | – | –
CC(C)(C)OC(=O)N1CCC(c2ccc(C(=O)CSc3ccnc4ccccc34)cc2)CC1 [Compound 75, 4-[2-[4-(1-tert-Butoxycarbonyl-4-piperidinyl)phenyl]-2-oxoethylthio]quinoline] | 0.0125 µg/mL (≈ 0.027 µM) | – | – | – | – | – | – | –
CC(C)(C)OC(=O)N1CCCN(c2ccc(C(=O)CSc3ccnc4ccccc34)cc2)CC1 [Compound 76, 4-[2-[4-(4-tert-Butoxycarbonyl-1-homopiperazinyl)phenyl]-2-oxoethylthio]quinoline] | 0.0062 µg/mL (≈ 0.013 µM) | – | – | – | – | – | – | –
CC(C)(C)OC(=O)N1CCN(c2ccc(C(O)CSc3ccnc4ccccc34)cc2)CC1 (stereo not drawn) [Compound 87, 4-[2-[4-(4-tert-Butoxycarbonyl-1-piperazinyl)phenyl]-2-hydroxyethylthio]quinoline] | 0.0008 µg/mL (≈ 0.00172 µM) | – | – | – | – | – | – | –

More lines, in order of falling MIC [1], values ahead:

MIC [1] | MIC [2] | MIC [3] | MIC [4] | MIC [5] | MIC [6] | MIC [7] | MIC [8] | SMILES
0.0062 µg/mL (≈ 0.0171 µM) | > 100 µg/mL | > 100 µg/mL | > 100 µg/mL | > 100 µg/mL | > 100 µg/mL | > 100 µg/mL | > 100 µg/mL | O=C(CSc1ccnc2ccccc12)c1ccc(N2CCCCC2)cc1 [Compound 22, 4-[2-(4-Piperidinophenyl)-2-oxoethylthio]quinoline]
0.0031 µg/mL (≈ 0.00699 µM) | > 100 µg/mL | > 100 µg/mL | > 100 µg/mL | > 100 µg/mL | > 100 µg/mL | > 100 µg/mL | > 100 µg/mL | O=C(CSc1ccnc2ccccc12)c1ccc(N2CCOCC2)c(Br)c1 [Compound 10, 4-[2-(3-Bromo-4-morpholinophenyl)-2-oxoethylthio]-quinoline]
0.0031 µg/mL (≈ 0.0067 µM) | – | – | – | – | – | – | – | CC(C)(C)NC(=O)N1CCN(c2ccc(C(=O)CSc3ccnc4ccccc34)cc2)CC1 [Compound 85, 4-[2-[4-[4-(N-tert-Butylcarbamoyl)-1-piperazinyl]phenyl]-2-oxoethylthio]quinoline]
0.0031 µg/mL (≈ 0.00702 µM) | – | – | – | – | – | – | – | CS(=O)(=O)N1CCN(c2ccc(C(=O)CSc3ccnc4ccccc34)cc2)CC1 [Compound 86, 4-[2-[4-(4-Methanesulfonyl-1-piperazinyl)phenyl]-2-oxoethylthio]quinoline]
0.0016 µg/mL (≈ 0.00362 µM) | – | – | – | – | – | – | – | O=C(CSc1ccnc2ccccc12)c1ccc(N2CCN(c3ncccn3)CC2)cc1 [Compound 68, 4-[2-[4-[4-(2-Pyrimidyl)-1-piperazinyl]phenyl]-2-oxoethylthio]quinoline]
0.0016 µg/mL (≈ 0.0034 µM) | – | – | – | – | – | – | – | CN(C)S(=O)(=O)N1CCN(c2ccc(C(=O)CSc3ccnc4ccccc34)cc2)CC1 [Compound 84, 4-[2-(4-(4-Dimethylsulfamoyl-1-piperazinyl)phenyl]-2-oxoethylthio]quinoline]
0.0008 µg/mL (≈ 0.0018 µM) | – | – | – | – | – | – | – | CC(C)(C)C(=O)N1CC=C(c2ccc(C(=O)CSc3ccnc4ccccc34)cc2)CC1 [Compound 74, 4-[2-[4-(1-Pivaloyl-1,2,5,6-tetrahydropyrid-4-yl)phenyl]-2-oxoethylthio]quinoline]
0.0008 µg/mL (≈ 0.00184 µM) | – | – | – | – | – | – | – | CCOC(=O)N1CCN(c2ccc(C(=O)CSc3ccnc4ccccc34)cc2)CC1 [Compound 82, 4-[2-[4-(4-Ethoxycarbonyl-1-piperazinyl)phenyl]-2-oxoethylthio]quinoline]
0.0008 µg/mL (≈ 0.00179 µM) | – | – | – | – | – | – | – | C=CCOC(=O)N1CCN(c2ccc(C(=O)CSc3ccnc4ccccc34)cc2)CC1 [Compound 83, 4-[2-[4-(4-Allyloxycarbonyl-1-piperazinyl)phenyl]-2-oxoethylthio]guinoline]
0.0004 µg/mL (≈ 0.00078 µM) | – | – | – | – | – | – | – | CC(C)(C)CN1CCN(c2ccc(C(=O)CSc3ccnc4ccccc34)cc2Br)CC1 [Compound 66, 4-[2-[3-Bromo-4-(4-neopentyl-1-piperazinyl)phenyl]-2-oxoethylthio]quinoline]
